Reference: patent US20070020684A1, “Structure of a glucocorticoid receptor ligand binding domain comprising an expanded binding pocket and methods employing same” (priority 2002, published 2007)

T1: PR (Homo sapiens, UniProt P06401)
T1 sequence (P06401 1-933): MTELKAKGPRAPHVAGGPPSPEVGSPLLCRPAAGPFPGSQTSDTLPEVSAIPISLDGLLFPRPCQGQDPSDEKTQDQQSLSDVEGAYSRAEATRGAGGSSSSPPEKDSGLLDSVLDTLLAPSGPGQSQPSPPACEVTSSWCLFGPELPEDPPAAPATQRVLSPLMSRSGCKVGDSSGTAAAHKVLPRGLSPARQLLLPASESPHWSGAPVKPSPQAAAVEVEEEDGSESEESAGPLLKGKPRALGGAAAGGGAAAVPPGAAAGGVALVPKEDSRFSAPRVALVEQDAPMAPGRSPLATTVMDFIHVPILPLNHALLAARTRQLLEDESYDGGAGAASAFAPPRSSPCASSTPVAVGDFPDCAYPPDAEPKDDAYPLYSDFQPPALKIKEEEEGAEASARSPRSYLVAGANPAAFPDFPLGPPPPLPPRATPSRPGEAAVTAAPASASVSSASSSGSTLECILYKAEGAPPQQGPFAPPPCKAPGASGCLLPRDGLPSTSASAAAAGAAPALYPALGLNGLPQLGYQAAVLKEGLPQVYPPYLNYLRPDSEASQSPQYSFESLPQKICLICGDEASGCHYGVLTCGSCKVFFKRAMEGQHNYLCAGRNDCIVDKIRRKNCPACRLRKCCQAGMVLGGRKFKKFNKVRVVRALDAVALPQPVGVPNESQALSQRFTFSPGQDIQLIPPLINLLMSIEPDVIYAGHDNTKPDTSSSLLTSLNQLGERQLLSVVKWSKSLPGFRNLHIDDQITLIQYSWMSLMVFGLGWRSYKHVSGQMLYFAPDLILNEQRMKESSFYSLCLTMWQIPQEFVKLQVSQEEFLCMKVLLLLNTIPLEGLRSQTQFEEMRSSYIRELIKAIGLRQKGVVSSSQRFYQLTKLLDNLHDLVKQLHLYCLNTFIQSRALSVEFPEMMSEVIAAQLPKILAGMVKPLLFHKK

T2: GR LBD (521-777) F602S polypeptide (human glucocorticoid receptor alpha ligand binding domain) (human, UniProt P04150 521-777)
T2 construct: Expressed in E. coli from plasmid 6xHisGS-TGR(521-777) F602S pET24; The fusion tag was cut off with thrombin before complex formation and crystallization; Residue numbers in the text follow full-length human GR; In the crystal, two LBD monomers form a symmetric dimer; also called GRα LBD; GR LBD F602S
T2 sequence: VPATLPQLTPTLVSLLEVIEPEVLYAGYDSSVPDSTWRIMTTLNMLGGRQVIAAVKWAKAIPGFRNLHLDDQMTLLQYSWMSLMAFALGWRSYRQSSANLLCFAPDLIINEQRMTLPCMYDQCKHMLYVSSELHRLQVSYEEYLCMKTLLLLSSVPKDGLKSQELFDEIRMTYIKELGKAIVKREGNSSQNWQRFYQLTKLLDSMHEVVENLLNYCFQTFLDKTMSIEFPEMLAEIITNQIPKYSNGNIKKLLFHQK


Key:
[1] = biological target: T1, PR; details: known, potent, non-steroidal agonist; cited from earlier work
[2] = biological target: T2, GR LBD (521-777) F602S polypeptide …; experiment: X-ray co-crystal structure, 2.6 Å

binding result [2] | Molecule | binding affinity for PR (in words) [1]
– | CC1CCC(c2ccc(Cl)c(C(F)(F)F)c2)=NN1S(=O)(=O)c1ccc(I)cc1 (centres unmarked) [RWJ-60130, 3-(4-chloro-3-trifluoromethylphenyl)-1-(4iodobenzensulfonyl)-6-methyl-1,4,5,6-tetrahydropyridazine] | high-affinity
binds | KENALLRYLLDKDD [TIF2 peptide (residues 740-753 of the human TIF2 protein), KENALLRYLLDKDD] | –
